From patent US11931403B2, “Compositions, systems, and methods for treating or reducing hypoxia-ischemia induced brain damage and neurobehavioral dysfunction in neonates” (UNIVERSITY OF MISSISSIPPI MEDICAL CENTER, priority 2019, dated 2024)

Key:
[1] = design: species or system Sprague-Dawley rats; conditions: rat, in vivo
Procedure: Another set of animals were prepared for ELISA study. […] Total proteins were extracted using protein lysis buffer (Invitrogen).
Ex vivo whole brain and spinal cord imaging using live imaging devices (IVIS Spectrum imaging system) was performed to provide an accurate picture of the overall bio-distribution of fluorescent labeling insulin. […] To accurately assess bio-distribution of intranasal insulin, all tissues of interest were analyzed by ELISA.

neonatal pig model of HI = conditions: IV, to prevent hyperglycemia during glucose infusion before HI injury; cited from earlier work
[2] = test system: neonatal piglet model of HI; conditions: bolus injection followed by continuous infusion, continued during HI exposure; cited from earlier work

Alexa 546-labeled insulin: fluorescent Alexa 546-labeled insulin (Nanocs Inc) used to study distribution in brain after intranasal application
Delivery to the central nervous system (fluorescence imaging) [1]: delivered to the central nervous system at 15 minutes

regular porcine insulin: IV regular porcine insulin used by LeBlanc et al. in a neonatal pig model of HI
Outcome of piglets in the insulin group (neonatal pig model of HI): fared slightly better

regular insulin: regular insulin bolus and infusion to induce moderate hypoglycemia in a neonatal piglet HI model
Brain injury with insulin-induced hypoglycemia [2]: not able to ameliorate brain injury
